For one data set, the system named is SW480. Description: Cell growth inhibition assay, SW480. The class given is cell-based, human. As for the experimental part: Cells were plated at a density of between 500 to 5000 cells per well for adherent cell lines depending on doubling time, and 15,000 cells per well for lymphoblastic leukemia cell lines, in a 96-well plate in 200 μl of growth media. Plates were incubated overnight at 37 °C before adding the inhibitors. Inhibitors were serially diluted from the stock solutions in complete medium and added to the cells. Incubation in the presence of inhibitors was continued for […]. Cell viability was assessed by the AlamarBlue (Invitrogen) or CellTiterBlue/Glo (Promega) method according to manufacturer’s instructions. The curve fits and IC50 values were generated in PRISM (GraphPad, San Diego, CA).
a Chemical structures of the triazine-based anti-mitotics used in this study. b Dose-dependent antiproliferative activity of key derivatives and comparison with commonly used anti-mitotics in SW480 cell line: Data shown is cell viability (as measured by CellTiterGlo) after 72 h relative to untreated control cells. Shown is mean of 3 independent experiments performed in duplicate +/- SEM. c Dose-dependent cell cycle analysis of key derivatives of WEHI-7326 development in SW480 cell line. Data are presented as percentage of cells in G2/M or subG0 after 24 h incubation with titration of inhibitors as assessed by PI staining and flow cytometry. Mean average of 3 experiments +/- SEM. d Comparison of IC50 and EC50 values of triazine compounds and anti-mitotic drugs in SW480 cell line: inhibition of cellular proliferation and cell cycle arrest in G2/M. IC50 and EC50 values are the mean of 3 independent experiments run in duplicates +/- SEM (n.d. = not determined). e HepG2 cytotoxic assay: cell viability assay after 48 h, normalised to 0.4% DMSO (100% viability) and 2 μM bortezomib (0% viability). The data is the mean average of 2 experiments +/- SD.

Another data set is described as follows: Plasma protein binding. The class given is in vitro ADME. As to conditions: mouse plasma. From the text: (§1) a Measured physicochemical and solubility data for WEHI-7326. […] Microsomal-predicted EH values are included.
The subject of data set [1] is MDA-MB-231 LNA DRE (docetaxel resistant breast cancer) xenograft. Nature of the data set: Orthotopic MDA-MB-231 LNA-DRE xenograft. The format is in vivo, Balb/c nude mice. The note with it: docetaxel 10 mg/kg weekly i.v., WEHI-7326 30 mg/kg biweekly i.v. The protocol: LoVo (4 × 10^6), PC3 (3 × 10^6) or MDA-MB-231 LNA DRE (10^6) cells were collected by trypsination and injected with 50 μl 1:1 PBS:Matrigel (v/v) subcutaneously on the right flank of 18 female (LoVo), 40 male (PC3) or into 4th mammary fat pad of 40 female (MDA231) Balb/c nude mice. Tumor growth was monitored and average tumor size at commencement of dosing was 100 mm^3. Mice were randomized into 3 arms of each 5 (LoVo), 10 (PC3) or 12 (MDA23) mice respectively and treatment with vehicle (saline), WEHI-7326 (biweekly) or docetaxel (weekly) was administered via tail vein injection. Tumor volumes were measured at least twice weekly with calipers and the experiments were terminated when tumors in the control group started exceeding 1500 mm^3. For LoVo, both vehicle and 25 mg/kg WEHI-7326 groups were harvested 24 h, but 20 mg/kg WEHI-7326 group harvested 1 h post final dose. For PC3, docetaxel group was not harvested in an attempt to grow out resistant tumors.

Data set [2] concerns COG-N-440x neuroblastoma PDX. Nature of the data set: High-risk neuroblastoma PDX COG-N-440x. The format is in vivo, NSG mice. The note with it: COG-N-440x PDX; 20 mg/kg i.v. twice weekly. The protocol: All animal studies were performed in accordance with the guidelines approved by University of New South Wales Animal Care and Ethics Committee (ACEC 17/53B) and in accordance with the requirements of the Australian Code for the Care and Use of Animals for Scientific Purposes. PDX models COG-N-440x and COG-N-496x were obtained from the Childhood Cancer Repository, Texas Tech University Health Sciences Center in Lubbock, TX, USA. 6–8 week old female NSG mice were engrafted by subcutaneous injection with 1 × 10^6 freshly thawed PDX tumor cells into one flank in a mixture of 100 μl RPMI-1640 and 100 μl Matrigel. Mice were monitored for tumor development three times weekly and tumor size measured using digital Vernier calipers. Treatments commenced when tumors reached 50 mm^3, following randomization into treatment arms. […] Mice were treated with either vincristine (0.5 mg/kg, once weekly i.p. in sterile saline for up to 5 weeks), WEHI-7326 (20 mg/kg; twice weekly i.v. in sterile saline for up to 5 weeks) or vehicle (as for WEHI-7326). For the Th-MYCN transgenic mouse model, spontaneous tumor growth in mice homozygous for the MYCN transgene was assessed by abdominal palpation at least twice a week. Treatments commenced once a small palpable tumor (~5 mm) was detected, following randomization to treatment arms. Mice were euthanized upon detection of an abdominal tumor of ~1 cm in diameter. […]

Data set [3] in a line: Measured physicochemical and solubility data.
Text: as §1

Data set [4] is described as follows: Metabolic stability in liver microsomes and cryopreserved hepatocytes. The class given is in vitro ADME. The note with it: human, rat and mouse liver microsomes and cryopreserved hepatocytes.
Text: as §1

Data set [5] has as its system U87MG-(Δ2–7) (glioblastoma) xenograft. Nature of the data set: U87MG-(Δ2–7) tumor xenograft in nude mice. As to conditions: U87MG-(Δ2–7) xenograft, i.p. three times weekly. The class given is in vivo, BALB/c nude mice. As for the experimental part:
Tumor cell lines LIM2537, U87MGΔ2–7EGFR or H1437 were collected by trypsinization, counted and injected at 5 × 10^6 cells/ site subcutaneously on both flanks of BALB/c nude mice. Treatment with vehicle control or WEHI-7326 at given dose was initiated after 5 days. Drug or vehicle (100 μl) was injected intraperitoneally three times weekly. Control group and treatment group consisted of 8 mice each. Tumors were measured twice weekly with calipers. Tumor volumes were estimated using the modified ellipsoid formula V = 1/2 (length × width^2). The experiments were terminated when tumors in the control group started ulcerating or exceeded 17 mm in length, in line with the LICR/DoS Animal Ethics Committee guidelines (11/05 A).

Molecules are shown by their SMILES.

In the case of `COc1ccc(CNc2nc(NCc3ccc(CN)cc3)nc(NN3CC(=O)NC3=O)n2)cc1` [WEHI-7326], the IC50 with SW480 (Homo sapiens, SW480, colon carcinoma, 72 h viability assay, CellTiterGlo, mean of 3 ± SEM, read-out: IC50 (inhibition of cellular proliferation)) amounted to 39.5 ± 4.1 nM. Besides, the “Potency relative to myoseverin B” value in the data set on SW480 (SW480) is recorded as “almost ten-fold”. The Concentration inhibiting proliferation result in the data set with SW480 (SW480 colon cancer cell line in vitro) is “at or below micromolar concentration”. The molecule also came in with a Protein binding in the data set “Plasma protein binding” of 61 % bound. For the same molecule, in data set [1], the “Tumor growth inhibition (TGI)” value was 105%. Moreover, in data set [2], the Median survival is recorded as 39 days. Further, in data set [3], the Lipophilicity entry is given as “very low”. The “Solubility in common dosing vehicles” value in data set [3] (5% [w/v] glucose, 0.9% [w/v] saline and isotonic acetate buffer pH 5) is recorded as “soluble”. The “Stability in dosing vehicles” value in data set [3] (storage in common dosing vehicles) is “negligible degradation”. The Rate of metabolism result in data set [4] was “low rates of metabolism”. Besides, the Tumor growth entry in data set [5] is given as “effective in reducing tumor growth”.

Source of the values: article PMC7955127, “Preclinical small molecule WEHI-7326 overcomes drug resistance and elicits response in patient-derived xenograft models of human treatment-refractory tumors” (Cell Death & Disease, 2021).
